Assay [1] relates to sections of the cerebral cortex of a rat stimulated by KCl. Description: Action in vitro on consumption of oxygen, accumulation of lactic acid and consumption of glucose in rat cerebral cortex sections stimulated by KCl (Warburg technique, enzymatic determination). The assay is classed as cell-based. Conditions: for Accumulation of lactic acid / Consumption of glucose / Consumption of oxygen: rat cerebral cortex sections stimulated by KCl, 1 hour at 37°, ACh 2.7.10^-10 M, insulin 66.10^-4 U/I. From the text: 1. The investigation, on sections of a rat's brain which have been stimulated by KCl, of the variations in the consumption of oxygen, the production of lactic acid and the consumption of glucose, by WARBURG's conventional technique, after which these sections are subjected to the action of guanosine, ACh or insulin or guanosine in association with ACh or insulin. I. Action in vitro of guanosine, alone or in association with acetylcholine or insulin, on the consumption of oxygen, the accumulation of lactic acid and the consumption of glucose in sections of the cerebral cortex of a rat which have been stimulated by KCl. The animals which are used are male Wistar Vag rats with an average weight of 225/250 grammes, and they have been subjected to standard laboratory regime. The sections of tissue, which weigh between 15 and 20 mg, were taken from the cerebral cortex of the rat and allowed to incubate for 1 hour at 37° after being placed in a flask containing the Krebs-Ringer phosphate buffer having a KCl concentration of 10 percent. The substrate comprises 15 μ moles of glucose. The guanosine, […], is added to the flask simultaneously with the glucose and the buffer, whereas the acetylcholine 2.7.10^^-10 M and the insulin (Endopancrine) 66.10^-^4 μ/liter are placed in the lateral paunch and put into contact with the section of tissue at a time 0. The total volume of the mixture is 3 mls. The consumption of oxygen is measured according to Warburg's conventional method after a 1-hour period of incubation at 37°. It is expressed in μ moles of oxygen per hour and per gramme of tissue. The lactic acid and glucose are determined in the deproteinised incubation medium by an enzymatic method. The results are expressed in μ moles/h/g of tissue.

The test system of assay [2] is glycogen of the mouse brain. Description: Cerebral glycogen in a mouse after injection of guanosine, insulin or both. In kind it is in vivo. Conditions: for glycogen of the mouse brain: 30 minutes before killing; for level of cerebral glycogen compared with the controls (in words): mouse, guanosine 100 mg/kg or 200 mg/kg, insulin 0.5 I.U./20 g, or insulin with guanosine 200 mg/kg. The protocol: 2. The investigation of the content of glycogen in the brain of a mouse under the action of quanosine or insulin or these two agents in association. The animals which are used are male mice with an average weight of 20-25 g. Five groups of animals were studied which had received respectively: 1st group: a isotonic salt solution by intraperitoneal injection. 2nd group: a dose of 100 mg/kg of guanosine by intraperitoneal injection. 3rd group: a dose of 200 mg/kg of guanosine by intraperitoneal injection. 4th group: a dose of 0.5 μI/20 g per mouse of insulin by subcutaneous injection. For these four groups the injection was made 30 minutes before the animals were killed. 5th group: an intraperitoneal injection of guanosine at a dose of 200 mg/kg 30 minutes before a sub-cutaneous injection of insulin at a dose of 0.5 μI/20 g per mouse. The animal is killed 30 minutes after the second injection by being totally immersed in liquid nitrogen. The brains are removed whilst they are still deep-frozen. The isolated glycogen is hydrolyzed by the enzyme amylo-α-1,4 -α-1,6 glucosidase which releases the glucose by hydrolysis of the α-(1 → 6) and α-(→ 4) bonds. The glucose is then converted, in a single stage, to 6-phosphogluconate by the enzymes : hexokinase and glucose-6-phosphate dehydrogenase. The formation of the nicotinamide adenine dinucleotide phosphate is then measured florometrically (NAHORSKI and ROGERS, Analyt. Biochem. 1972, 49, 492-497).

Assay [3] deals with glycemia. Description: Action of guanosine upon glycemia in the rabbit after intravenous injection. The assay is classed as in vivo. Conditions: insulin 0.5 I.U. per kg alone or with guanosine 100 mg per kg, followed to 240 min. The protocol:
3. The study of the variations in glycemia in a rabbit after an injection of either insulin or insulin in association with guanosine.
The animals which are used are male rabbits with a weight of 2.200 kg to 2.500 kg.
Four groups of animals were studied which had received by intravenous injection, respectively, in a volume of 10 ml:
1st group: an isotonic solution of sodium chloride.
2nd group: guanosine at the rate of 100 mg per kg of rabbit.
3rd group: insulin at the rate of 0.5 I.U. per kg of rabbit.
4th group: guanosine at the rate of 100 mg per kg of rabbit and insulin at the rate of 0.5 I.U. per kg of rabbit.
A catheter is inserted into the femoral artery, its distal end being joined to the skin in the caudal region, such that the blood may be removed without harming the rabbit.
The drugs were injected via a vein in the ear. The guanosine was dissolved in an isotonic sodium chloride solution to which 1.5% NaOH was added until the guanosine has been dissolved. The pH of the final solution was 9.
After the inspection the rabbits were given 30 minutes rest.
Arterial blood was removed on six occasions at the times t = 0 min; t = 15 min; t = 30 min; t = 60 min; t = 120 min; t = 240 min.
The glycemia values were determined by the enzymatic method of BOEHRINGER.

Consider `CC(=O)OCC[N+](C)(C)C` [ACh, acetylcholine, reference compound], for which the “increase in the consumption of oxygen” value in assay [1] (acetylcholine 2.7.10^-10 M, alone or with guanosine, rat cerebral cortex sections) turned out to be 25%. In assay [1] (guanosine 1.66.10^-4 M), this molecule yielded an Accumulation of lactic acid of 98.8 ± 3.7 µmol/h/g, a Consumption of glucose of 146 ± 13.9 µmol/h/g and a Consumption of oxygen of 134 ± 7.2 µmol/h/g.
Turning to `Nc1nc2c(ncn2[C@@H]2O[C@H](CO)[C@@H](O)[C@H]2O)c(=O)[nH]1` [Guanosine, guanosine], in assay [2] (guanosine 100 mg/kg intraperitoneal), the “glycogen of the mouse brain” value was 151 ± 7 μ g of glucose equivalents per. Besides, in assay [2] (guanosine 200 mg/kg intraperitoneal), the “glycogen of the mouse brain” value is given as 159 ± 8 μ g of glucose equivalents per. For the same molecule, the “level of cerebral glycogen compared with the controls (in words)” value in assay [2] is given as “do not show any significant differences”. In assay [1] (guanosine 1.66.10^-4 M), this molecule showed an Accumulation of lactic acid of 88.2 ± 5.4 µmol/h/g, a Consumption of glucose of 99.3 ± 9.1 µmol/h/g and a Consumption of oxygen of 93 ± 6 µmol/h/g. In addition, in assay [1] (rat cerebral cortex sections, guanosine 1.66.10^-4 M), the “effect upon the accumulation of lactic acid (in words)” value is recorded as “has no effect”. Further, the “effect upon the consumption of glucose (in words)” value in assay [1] (rat cerebral cortex sections, guanosine 1.66.10^-4 M, acetylcholine 2.7.10^-10 M) is on record as “has no effect”. In addition, the “effect upon the consumption of oxygen (in words)” value in assay [1] (rat cerebral cortex sections, guanosine 1.66.10^-4 M, acetylcholine 2.7.10^-10 M, insulin 66.10^-4 μ/liter) is “has no effect”.
insulin: in assay [3], the “return of the glycemia to its original level (in words)” value was “quickly returns to its original level”. Also, the “glycogen of the mouse brain” value in assay [2] (insulin 0.5 I.U./20 g mouse subcutaneous) is recorded as 182 ± 10 μ g of glucose equivalents per. Also, the “level of cerebral glycogen compared with the controls (in words)” value in assay [2] is listed as “very much higher than that of the controls”. For the same molecule, the “increase in the consumption of glucose” value in assay [1] (insulin 66.10^-4 μ/liter, alone or with guanosine, rat cerebral cortex sections) is listed as 50%. Also, in assay [1] (guanosine 1.66.10^-4 M), the Accumulation of lactic acid is 84.6 ± 5 µmol/h/g, the Consumption of glucose is 168 ± 17 µmol/h/g and the Consumption of oxygen is 91.6 ± 5.3 µmol/h/g.

The record behind these values is patent publication US4035486A, “Medicament” (Centre d'Etudes Experimentales et Clinques de Physio …, priority 1974, dated 1977).
